Data from US8716284B2, “Adamantyl diamide derivatives and uses of same” (H. Lundbeck A/S, priority 2008, dated 2014).

Legend:
[1] = test system: adult, male Sprague-Dawley rats; assay: Modified Geller-Seifter conflict test, anxiolytic effect; format: in vivo, rat; conditions: for Statistically significant Active dose(s): oral, Geller-Seifter assay, ANOVA with Dunnett's test or t-test; for Geller-Seifter EDmin: rat conflict test, PO for Example 58
Method: (§1) Examples 1, 2 and 58 were evaluated in vivo for anxiolytic effects using (1) mouse marble burying (mMB) methods similar to those described in [K. Njung'e, K. and S. L. Handley, Pharmacology, Biochemistry and Behavior, 1991, 38, 63-67] and (2) a modified Geller-Seifter conflict test described in [N. A. Moore et al. Behavioural Pharmacology. 1994, 5, 196-202].
More specifically for the Geller-Seifter Conflict testing, rodent operant chambers (ENV-007CT, Med Associates Inc. (Georgia, Vt.)) and sound-attenuating chambers (ENV-018MD, Med Associates Inc.) were used. Each chamber was equipped with a house light, cue lights, grid floor to deliver foot shocks via a programmable shocker, (ENV-414, Med Associates, Inc.) and food hopper. Two levers were located on either side of the food hopper, Rats were trained to only respond on the left lever. Food reinforcement was used (Dustless Precision Pellets, 45 mg, BioServ, (Frenchtown, N.J.)). MED-PCIV software (Med Associates) was used to run experimental sessions and collect data.
Prior to beginning the Conflict procedure, animals were initially trained to lever press on fixed ratio schedules (FR 1, 2, 5, and 10). Once animals obtained 25 rewards on a FR 10 schedule for 2 consecutive days, animals began training on a three component Conflict schedule. […] These three components were repeated twice in the same order during the daily 30 minute session.
Animals were tested using a Latin-squares design, on Wednesdays and Fridays. Animals served as their own controls and received all treatments. To maintain baseline performance, animals were also trained the remaining three weekdays.
Testing was performed using 12 adult, male Sprague-Dawley rats, weighing 426-567 g (Charles River Laboratories (Kingston, N.Y.)). Animals were pair-housed in colony rooms maintained at controlled temperature (68-72° F.) and a 12-h light/dark cycle (lights on 06:00). Animals were given free access to water, while food was limited to 15 g of Bacon Lover's Treats (BioServ) after training/testing Monday through Thursday. Friday through Sunday, animals had free access to Lab Diet 5012 Rat Diet (PMI Nutrition International, LLC, Brentwood, Mo.) until cages were changed and food removed on Sunday.
Testing included multiple tests where each test was performed to evaluate either a reference compound or a compound of the present invention. Reference anxiolytics included chlordiazepoxide, diazepam and buspirone, which were dissolved in saline or water and administered via SC, IP, and/or PO, Test compounds were dissolved in 20% beta-cyclodextrin, and the pH was adjusted to 7 with NaHCO3. For each test, the compound to be evaluated was tested at one or more doses (such as 10, 20, 30 and/or 50 mg/kg) via p.o. administration 60 minutes before the test using an injection volume of 2 mL/kg in comparison with a vehicle control group. Doses were measured in mg drug (salt form) per kg body weight. Data was analyzed using Repeated Measures ANOVA with post-hoc Dunnett's test.

[2] = biological target: T1, rat metabotropic glutamate receptor 5 (mGluR5) (Rattus norvegicus, UniProt P31424); assay: Calcium mobilization assay (FLIPR) for negative or positive allosteric activity, HEK 293 cells; format: cell-based; conditions: HEK293, negative allosteric modulation, inhibition of EC80 glutamate response; read-out: FLIPR maximum inhibition
T1 construct: expressed in transfected cells; host or cells: HEK 293
Method in brief: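 HEK 293 cells stably expressing rat mGluR5, Fluo-4 loaded in HEPES-buffered HBSS pH 7.4 with 0.1% BSA and probenecid. Compound added with EC20 (potentiation) or EC80 (inhibition) glutamate; fluorescence read over 3 min at room temperature. Basal-subtracted maximum fluorescence change fitted to Hill equation.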

adult, male CD1 mice = assay: Mouse marble burying (mMB) assay, anxiolytic effect; format: in vivo; conditions: for mMB EDmin: SC given for Example 58
Method: as §1
More specifically for the mMB testing, adult, male CD1 mice (Charles River Laboratories (Kingston, N.Y.)), weighing 25 to 30 g, were used. All animals were group-housed in a standard colony room with a 12:12 light/dark cycle (lights on at 6:00 am) for at least one week prior to testing. Food and water were provided ad libitum. Animals were weighed, tail marked, and randomly assigned to treatment groups before testing.
For each test, sixty minutes after the injection of vehicle or test compound, or 30 min after injection of the positive control, buspirone, mice were individually placed into test cages containing 1.5 in of Aspen bedding (PWI brand) and two rows of 10 marbles (20 marbles per test cage total). Filter tops were used to cover each test cage. Thirty minutes later, mice were removed from test cages and returned to their home cages. The number of fully visible marbles (less than ⅔ covered with bedding) were counted and subtracted from 20 to arrive at the number of marbles buried. Twelve mice were tested per group.
Testing included multiple tests with each test performed to evaluate buspirone hydrochloride (BUS; Sigma Aldrich) (positive control) and/or a compound of the present invention. Each compound was dissolved immediately prior to testing in 20% beta-cyclodextrin (compound of the present invention) or distilled water (BUS) and administered at one or more doses (such as 3, 10, and/or 30 mg/kg) via subcutaneous (SC) or intraperitoneal (IP) injection at the indicated pretreatment times (i.e., 30, 60, or 120 min pretreatment). Doses were measured in mg drug (salt form) per kg body weight. Data was analyzed using one-way ANOVA with post-hoc Dunnett's test.

mGluR5 = mGluR5 (Homo sapiens, UniProt P41594); assay: Radioligand binding assay, [3H]MPEP filtration binding to membrane homogenates; conditions: 5 nM [3H]MPEP; Ki calculated from IC50 by Cheng-Prusoff
Method: Binding assays were performed as described in [J. A. O'Brien et al. Mol. Pharmacol., 2003, 64, 731-740] with slight modifications. Briefly, after thawing, the membrane homogenates were resuspended in 50 mM Tris-HCl, 0.9% NaCl binding buffer at pH 7.4 to a final assay concentration of 40 μg protein/well for [^3H]methoxy-5-(2-pyridinylethynyl)pyridine ([^3H] MPEP) (American Radiolabeled Chemicals, Inc., St. Louis, Mo.) filtration binding. Incubations included 5 nM [^3H] MPEP, membranes and either buffer or varying concentrations of compound. Samples were incubated for 60 min at room temperature with shaking. Non-specific binding was defined with 10 μM MPEP. After incubation, samples were filtered over a GF/C filter (presoaked in 0.25% polyethyleneimine (PEI)) and then washed 4 times using a Tomtec® Harvester 96® Mach III cell harvester (Tomtec, Hamden, Conn.) with 0.5 mL ice-cold 50 mM Tris-HCl (pH 7.4).
IC50 values were derived from the inhibition curve and Ki values were calculated according to the Cheng and Prusoff equation of Ki=IC50/(1+[L]/Kd) described in [Y. Cheng and W. H. Prusoff Biochem. Pharmacol. 1973, 22, 3099-3108] where [L] is the concentration of radioligand and Kd is its dissociation constant at the receptor, derived from the saturation isotherm.

Chain of mGluR5 (P41594 21-1212): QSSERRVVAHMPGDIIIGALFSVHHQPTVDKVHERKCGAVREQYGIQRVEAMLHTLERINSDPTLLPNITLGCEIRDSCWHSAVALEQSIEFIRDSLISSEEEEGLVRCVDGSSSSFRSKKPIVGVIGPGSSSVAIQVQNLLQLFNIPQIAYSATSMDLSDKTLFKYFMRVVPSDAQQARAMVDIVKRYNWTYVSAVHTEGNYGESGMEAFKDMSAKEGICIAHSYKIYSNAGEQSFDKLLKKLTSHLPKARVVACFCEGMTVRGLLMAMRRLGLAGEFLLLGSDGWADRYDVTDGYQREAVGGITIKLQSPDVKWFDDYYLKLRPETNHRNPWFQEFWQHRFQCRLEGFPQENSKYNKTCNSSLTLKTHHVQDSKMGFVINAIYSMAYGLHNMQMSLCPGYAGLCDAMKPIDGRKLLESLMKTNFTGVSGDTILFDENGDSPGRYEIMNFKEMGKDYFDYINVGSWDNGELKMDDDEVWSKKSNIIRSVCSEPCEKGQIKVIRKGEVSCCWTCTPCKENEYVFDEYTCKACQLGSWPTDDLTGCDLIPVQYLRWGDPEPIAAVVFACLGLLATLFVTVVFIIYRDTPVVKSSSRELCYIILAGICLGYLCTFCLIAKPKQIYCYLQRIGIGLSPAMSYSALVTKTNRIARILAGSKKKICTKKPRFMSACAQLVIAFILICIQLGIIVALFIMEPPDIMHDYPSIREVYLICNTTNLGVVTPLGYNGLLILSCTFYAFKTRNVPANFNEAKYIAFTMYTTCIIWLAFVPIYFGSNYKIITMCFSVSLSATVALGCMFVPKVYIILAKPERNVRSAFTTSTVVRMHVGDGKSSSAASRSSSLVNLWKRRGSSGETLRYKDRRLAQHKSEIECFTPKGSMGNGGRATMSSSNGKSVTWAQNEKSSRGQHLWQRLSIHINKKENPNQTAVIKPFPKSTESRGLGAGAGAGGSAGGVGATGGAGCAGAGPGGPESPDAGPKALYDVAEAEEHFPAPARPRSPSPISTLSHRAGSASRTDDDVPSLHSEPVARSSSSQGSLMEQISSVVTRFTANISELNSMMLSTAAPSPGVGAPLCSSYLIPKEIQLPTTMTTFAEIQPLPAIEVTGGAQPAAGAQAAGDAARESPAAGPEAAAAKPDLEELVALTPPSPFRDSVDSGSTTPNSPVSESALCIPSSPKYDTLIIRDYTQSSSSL
T1 sequence (P31424 21-1171 isoform P31424-2 limits assumed): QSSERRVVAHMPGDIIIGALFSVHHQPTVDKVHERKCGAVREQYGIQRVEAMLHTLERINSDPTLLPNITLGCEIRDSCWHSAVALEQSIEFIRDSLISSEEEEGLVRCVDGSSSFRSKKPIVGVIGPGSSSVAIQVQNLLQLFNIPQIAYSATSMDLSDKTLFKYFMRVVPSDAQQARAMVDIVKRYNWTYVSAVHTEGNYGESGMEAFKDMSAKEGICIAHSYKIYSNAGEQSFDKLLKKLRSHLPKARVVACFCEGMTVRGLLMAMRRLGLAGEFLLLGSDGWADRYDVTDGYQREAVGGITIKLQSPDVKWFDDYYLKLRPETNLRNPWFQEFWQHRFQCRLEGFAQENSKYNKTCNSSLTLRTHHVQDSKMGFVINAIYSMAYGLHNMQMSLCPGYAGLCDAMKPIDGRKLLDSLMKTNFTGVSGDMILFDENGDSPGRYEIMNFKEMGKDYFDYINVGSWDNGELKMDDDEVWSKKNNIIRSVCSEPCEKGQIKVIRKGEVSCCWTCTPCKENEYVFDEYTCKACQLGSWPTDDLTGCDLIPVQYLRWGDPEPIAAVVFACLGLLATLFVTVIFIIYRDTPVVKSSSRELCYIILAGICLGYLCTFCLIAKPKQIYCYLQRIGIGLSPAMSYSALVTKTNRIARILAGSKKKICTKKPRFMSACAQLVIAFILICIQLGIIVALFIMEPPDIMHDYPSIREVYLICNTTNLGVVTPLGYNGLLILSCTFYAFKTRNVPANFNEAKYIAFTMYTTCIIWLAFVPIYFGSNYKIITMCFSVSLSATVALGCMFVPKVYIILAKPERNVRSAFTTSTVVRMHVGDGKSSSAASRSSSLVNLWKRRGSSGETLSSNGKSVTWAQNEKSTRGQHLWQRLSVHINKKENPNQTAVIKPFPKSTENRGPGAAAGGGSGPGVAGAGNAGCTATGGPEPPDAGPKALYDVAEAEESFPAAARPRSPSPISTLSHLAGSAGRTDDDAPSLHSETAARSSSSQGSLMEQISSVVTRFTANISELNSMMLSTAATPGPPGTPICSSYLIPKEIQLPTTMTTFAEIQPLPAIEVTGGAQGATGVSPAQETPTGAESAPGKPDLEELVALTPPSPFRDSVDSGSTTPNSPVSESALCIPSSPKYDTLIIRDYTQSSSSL

SMILES | Statistically significant Active dose(s) [1] | Geller-Seifter EDmin [1] | Emax [2] | mMB EDmin (adult, male CD1 mice) | minimal effective dose (adult, male CD1 mice; SC injection, one-way ANOVA with Dunnett's test or t-test, read-out: Statistically significant Active Dose) | Ki (mGluR5)
O=C(NC12CC3CC(C1)CC(NC(=O)c1ccccn1)(C3)C2)c1ccccn1 [Example 2, N,N′-(1,3-adamantylene)bis(2-pyridinecarboxamide)] | 20 mg/kg | 20 mg/kg | 90 to 99% | 30 mg/kg | 30 mg/kg | 40 nM
Cc1cccc(C(=O)NC23CC4CC(C2)CC(NC(=O)c2cccc(C)n2)(C4)C3)n1 [Example 1, N,N′-(1,3-adamantylene)bis(6-methyl-pyridine-2-carboxamaide)] | 50 mg/kg | 10 mg/kg | 90 to 99% | 3 mg/kg | – | 6.7 nM
